# Source: patent US9771592B2, “Methods and compositions for treating or preventing pruritis” (The Johns Hopkins University, priority 2008, dated 2017)
# Key:
# [1] = molecular target: T1, rat MrgprC (Rattus norvegicus, UniProt Q8R4G1); assay: Rescue: Mrgpr-clusterΔ-/- DRG neurons electroporated with rat Mrgpr, calcium imaging
# T1 sequence (Q8R4G1 1-323): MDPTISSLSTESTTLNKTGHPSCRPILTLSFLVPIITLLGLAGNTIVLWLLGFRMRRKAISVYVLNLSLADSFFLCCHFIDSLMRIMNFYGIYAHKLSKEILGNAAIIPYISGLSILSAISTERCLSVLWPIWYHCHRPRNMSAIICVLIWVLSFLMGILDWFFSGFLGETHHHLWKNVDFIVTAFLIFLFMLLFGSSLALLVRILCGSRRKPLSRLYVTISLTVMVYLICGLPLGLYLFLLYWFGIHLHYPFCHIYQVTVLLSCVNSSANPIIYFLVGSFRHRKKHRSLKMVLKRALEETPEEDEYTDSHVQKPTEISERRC
# [2] = molecular target: T2, MrgprC11 (Mus musculus, UniProt Q8CIP3); assay: Calcium imaging of HEK293 cells transfected with Mrgpr-GFP constructs; type: cell-based; settings: BAM8-22 2 μM
# T2 construct: expressed in transfected cells; host or cells: HEK293
# T2 sequence (Q8CIP3 1-322): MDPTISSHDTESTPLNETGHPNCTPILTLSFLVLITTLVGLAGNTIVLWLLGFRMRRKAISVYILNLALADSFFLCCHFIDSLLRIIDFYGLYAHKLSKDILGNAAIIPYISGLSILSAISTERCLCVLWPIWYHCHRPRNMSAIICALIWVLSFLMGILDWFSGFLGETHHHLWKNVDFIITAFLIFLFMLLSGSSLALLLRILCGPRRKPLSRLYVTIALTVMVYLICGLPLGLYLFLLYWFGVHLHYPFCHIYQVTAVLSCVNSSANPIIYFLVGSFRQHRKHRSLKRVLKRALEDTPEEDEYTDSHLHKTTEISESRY
# Excerpt: (§1) Each of the twelve Mrgprs that were deleted in Mrgpr-clusterΔ^−/− mice were cloned into a mammalian expression vector (FIG. 1A), and transfected individually into human embryonic kidney (HEK) 293 cells. By fusing green fluorescent protein (GFP) to the C-termini of the Mrgpr coding sequences, both transfected cells and the proper membrane localization of the receptors was visualized. […] Increased [Ca^2+]i resulting from activation of the receptors was monitored by calcium imaging.
# (§2) HEK293 cells were transfected with Mrgpr-expression constructs using Lipofectamine 2000 (Invitrogen) according to the manufacturer's protocol.
# [3] = molecular target: T3, MrgprA4 (Mus musculus, UniProt Q91WW2); assay: as above; type: cell-based; settings: NPFF 2 μM
# T3 construct: expressed in transfected cells; host or cells: HEK293
# T3 sequence (Q91WW2 1-313): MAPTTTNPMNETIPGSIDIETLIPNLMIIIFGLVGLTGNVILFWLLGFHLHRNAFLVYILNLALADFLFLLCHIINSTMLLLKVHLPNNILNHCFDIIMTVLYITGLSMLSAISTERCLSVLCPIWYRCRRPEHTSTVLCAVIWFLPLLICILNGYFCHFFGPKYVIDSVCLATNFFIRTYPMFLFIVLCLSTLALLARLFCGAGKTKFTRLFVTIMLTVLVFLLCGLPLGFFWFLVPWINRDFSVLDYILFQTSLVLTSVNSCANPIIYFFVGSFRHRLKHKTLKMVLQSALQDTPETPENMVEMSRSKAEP
# Excerpt: as §1, §2
compound,measurement,setting,value
"CCN(CC)CCCC(C)Nc1ccnc2cc(Cl)ccc12 (stereo not drawn) [CQ, Chloroquine]",response of rat MrgprC-electroporated Mrgpr-deficient neurons,[1],did not
same,response of MrgprC11-expressing cells,[2],failed to respond
same,response of MrgprA4-expressing cells,[3],insensitive
